Test results taken from patent US20240409585A1, “MACROCYCLIC IMMUNOMODULATORS” (priority 2021, published 2024).
Bridge positions count the residues as written; N and C are the ends. Square brackets hold non-standard residues; d marks the D form. Peptide text beside a SMILES is read from it. * marks the point of attachment. ξ: configuration not given here. Phe(4-COOH) = N[C@@H](Cc1ccc(C(=O)O)cc1)C(=O)O; Bip = N[C@@H](Cc1ccc(-c2ccccc2)cc1)C(=O)O; Phe(3-CN) = N#Cc1cccc(C[C@H](N)C(=O)O)c1; Phe(3-Me) = Cc1cccc(C[C@H](N)C(=O)O)c1; Val(3-OH) = CC(C)(O)[C@H](N)C(=O)O; mTyr = N[C@@H](Cc1cccc(O)c1)C(=O)O; 3Pal = N[C@@H](Cc1cccnc1)C(=O)O; 4Pal = N[C@@H](Cc1ccncc1)C(=O)O; Cha = N[C@@H](CC1CCCCC1)C(=O)O; Cit = NC(=O)NCCC[C@H](N)C(=O)O; Ile(3ξ) = CCC(C)[C@H](N)C(=O)O; Thr(3ξ) = CC(O)[C@H](N)C(=O)O; dDab = NCC[C@@H](N)C(=O)O; Carboxymethyl = O=C(O)C*; NMeA = CN[C@@H](C)C(=O)O; Orn = NCCC[C@H](N)C(=O)O; Dab = NCC[C@H](N)C(=O)O; Dap = NC[C@H](N)C(=O)O; ξC = NC(CS)C(=O)O

Biological target: T1, PE-labeled human PD-L1-Ig binding to Jurkat cell line over-expressing human PD-1 (Jurkat-PD-1) (Homo sapiens, UniProt Q15116)
T1 construct: expressed in transfected cells; host or cells: Jurkat
T1 sequence (Q15116 25-288): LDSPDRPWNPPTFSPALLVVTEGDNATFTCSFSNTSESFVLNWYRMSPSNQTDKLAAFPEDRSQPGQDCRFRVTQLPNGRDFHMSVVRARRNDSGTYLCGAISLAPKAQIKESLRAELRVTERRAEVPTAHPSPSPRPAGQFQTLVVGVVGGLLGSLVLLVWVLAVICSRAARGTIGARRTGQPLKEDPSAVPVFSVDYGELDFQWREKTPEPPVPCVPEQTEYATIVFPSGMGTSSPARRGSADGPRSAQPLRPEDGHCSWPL
Test: Jurkat-PD-1 Cell Binding High-Content Screening Assay (CBA): Method 1
Details: Jurkat-hPD-1 cells, PE-labeled PD-L1-Ig 20 nM final; read-out: Jurkat HPDL1 PD1 IC50 (uM) (Method 1)

In order of falling IC50:
1. CC(C)C[C@@H]1NC(=O)[C@H](CCN)NC(=O)[C@@H](CC(C)C)NC(=O)[C@H](C)N(C)C(=O)[C@H](CCCNC(=N)N)NC(=O)[C@H](Cc2ccc(-c3ccccc3)cc2)NC(=O)[C@H](C(C)C)NC(=O)[C@H](Cc2c[nH]c3ccccc23)NC(=O)[C@H](CC(=O)O)NC(=O)[C@H](Cc2cccc(O)c2)NC(=O)[C@H](CC(N)=O)NC(=O)CSC[C@@H](C(=O)N[C@@H](C)C(N)=O)NC(=O)[C@H]([C@@H](C)O)NC(=O)[C@H](C(C)C)NC1=O [Compound 1355] ({CH2CO}-N[mTyr]DWV[Bip]R[NMeA][dL][Dab]LVTCA-NH2; thioether N-14)  0.13 µM
2. CC[C@H](C)[C@@H]1NC(=O)[C@H](Cc2ccc(-c3ccccc3)cc2)NC(=O)[C@H](C(C)C)NC(=O)[C@H](Cc2cccc(C)c2)NC(=O)[C@H](CC(=O)O)NC(=O)[C@H](Cc2ccc(O)cc2)NC(=O)[C@H](CC(N)=O)NC(=O)CSC[C@@H](C(=O)N[C@H](C)C(N)=O)NC(=O)[C@H]([C@@H](C)O)NC(=O)[C@H](C(C)(C)O)NC(=O)[C@H](CC(C)C)NC(=O)[C@H](CCN)NC(=O)[C@@H](CC(C)C)NC(=O)[C@H](C)N(C)C1=O [Compound 1685] ({CH2CO}-NYD[Phe(3-Me)]V[Bip]I[NMeA][dL][Dab]L[Val(3-OH)]TC[dA]-NH2; thioether N-14)  0.1 µM
3. CC(C)C[C@@H]1NC(=O)[C@H](CCN)NC(=O)[C@@H](CC(C)C)NC(=O)[C@H](C)N(C)C(=O)[C@H](CCCNC(=N)N)NC(=O)[C@H](Cc2ccc(-c3ccccc3)cc2)NC(=O)[C@H](C(C)C)NC(=O)[C@H](Cc2c[nH]c3ccccc23)NC(=O)[C@H](CC(=O)O)NC(=O)[C@H](Cc2cccc(C#N)c2)NC(=O)[C@H](CN)NC(=O)CSC[C@@H](C(=O)N[C@@H](C)C(N)=O)NC(=O)[C@H]([C@@H](C)O)NC(=O)[C@H](C(C)C)NC1=O [Compound 1455] ({CH2CO}-[Dap][Phe(3-CN)]DWV[Bip]R[NMeA][dL][Dab]LVTCA-NH2; thioether N-14)  0.08 µM
4. CC(C)C[C@@H]1NC(=O)[C@H](CCCN)NC(=O)[C@@H](CC(C)C)NC(=O)[C@H](C)N(C)C(=O)[C@H](CCCNC(=N)N)NC(=O)[C@H](Cc2ccc(-c3ccccc3)cc2)NC(=O)[C@H](C(C)C)NC(=O)[C@H](Cc2c[nH]c3ccccc23)NC(=O)[C@H](CC(=O)O)NC(=O)[C@H](Cc2ccc(C(=O)O)cc2)NC(=O)[C@H](Cc2cnc[nH]2)NC(=O)CSC[C@@H](C(=O)N[C@@H](C)C(N)=O)NC(=O)[C@H]([C@@H](C)O)NC(=O)[C@H](C(C)C)NC1=O [Compound 1149] ({CH2CO}-H[Phe(4-COOH)]DWV[Bip]R[NMeA][dL][Orn]LVTCA-NH2; thioether N-14)  0.07 µM
5. CC(C)C[C@@H]1NC(=O)[C@H](Cc2c[nH]c3ccccc23)NC(=O)[C@H](CC(=O)O)NC(=O)[C@H](Cc2ccc(O)cc2)NC(=O)[C@H](Cc2ccccc2)NC(=O)CSC[C@@H](C(=O)N[C@@H](C)C(N)=O)NC(=O)[C@H]([C@@H](C)O)NC(=O)[C@H](CCCCN)NC(=O)[C@H](CC(C)C)NC(=O)[C@H](CC(N)=O)NC(=O)[C@@H](C)NC(=O)[C@H](C)N(C)C(=O)[C@H](C(C)C)NC(=O)[C@H](Cc2ccc(-c3ccccc3)cc2)NC1=O [Compound 1766] ({CH2CO}-FYDWL[Bip]V[NMeA][dA]NLKTCA-NH2; thioether N-14)  0.04 µM
6. Cc1cccc(C[C@@H]2NC(=O)[C@H](CC(=O)O)NC(=O)[C@H](Cc3ccc(OCC(=O)O)cc3)NC(=O)[C@H](Cc3ccc(OCC(=O)O)cc3)NC(=O)CSC[C@@H](C(N)=O)NC(=O)[C@H]([C@@H](C)O)NC(=O)[C@H](C(C)C)NC(=O)[C@H](CC3CCCCC3)NC(=O)[C@H](CCN)NC(=O)[C@@H](CC(C)C)NC(=O)[C@H](C)N(C)C(=O)[C@H](Cc3ccc(OCC(=O)O)cc3)NC(=O)[C@H](Cc3ccc(-c4ccccc4)cc3)NC(=O)[C@H](Cc3ccc(OCC(=O)O)cc3)NC2=O)c1 [Compound 1656] ({CH2CO}-Y(Carboxymethyl)Y(Carboxymethyl)D[Phe(3-Me)]Y(Carboxymethyl)[Bip]Y(Carboxymethyl)[NMeA][dL][Dab][Cha]VTC-NH2; thioether N-14)  0.03 µM
7. Cc1cccc(C[C@@H]2NC(=O)[C@H](CC(=O)O)NC(=O)[C@H](Cc3ccc(OCC(=O)O)cc3)NC(=O)[C@H](CN)NC(=O)CSC[C@@H](C(=O)N[C@@H](C)C(N)=O)NC(=O)[C@H]([C@@H](C)O)NC(=O)[C@H](C(C)C)NC(=O)[C@H](CC(C)C)NC(=O)[C@H](CCN)NC(=O)[C@@H](CC(C)C)NC(=O)[C@H](C)N(C)C(=O)[C@H](CCCNC(N)=O)NC(=O)[C@H](Cc3ccc(-c4ccccc4)cc3)NC(=O)[C@H](C(C)C)NC2=O)c1 [Compound 1437] ({CH2CO}-[Dap]Y(Carboxymethyl)D[Phe(3-Me)]V[Bip][Cit][NMeA][dL][Dab]LVTCA-NH2; thioether N-14)  0.02 µM
8. CCC(C)[C@@H]1NC(=O)[C@H](Cc2ccc(-c3ccccc3)cc2)NC(=O)[C@H](C(C)C)NC(=O)[C@H](Cc2c[nH]c3ccccc23)NC(=O)[C@H](CC(=O)O)NC(=O)[C@H](Cc2ccc(O)cc2)NC(=O)[C@H](Cc2ccncc2)NC(=O)CSCC(C(=O)N[C@@H](CCCN)C(=O)O)NC(=O)[C@H](C(C)O)NC(=O)[C@H](C(C)C)NC(=O)[C@H](CC2CCCCC2)NC(=O)[C@H](CC(N)=O)NC(=O)[C@@H](CC(C)C)NC(=O)[C@H](C)N(C)C1=O (stereo partly drawn) [Compound 2214] ({CH2CO}-[4Pal]YDWV[Bip][Ile(3ξ)][NMeA][dL]N[Cha]V[Thr(3ξ)][ξC][Orn]-OH; thioether N-14)  0.02 µM
9. CC(C)C[C@@H]1NC(=O)[C@H](Cc2c[nH]c3ccccc23)NC(=O)[C@H](CC(=O)O)NC(=O)[C@H](Cc2ccc(O)cc2)NC(=O)[C@H](Cc2cccnc2)NC(=O)CSC[C@@H](C(=O)N[C@@H](C)C(N)=O)NC(=O)[C@H](CO)NC(=O)[C@H](C(C)C)NC(=O)[C@H](CC(C)C)NC(=O)[C@H](CC(N)=O)NC(=O)[C@@H](C)NC(=O)[C@H](C)N(C)C(=O)[C@H](C(C)C)NC(=O)[C@H](Cc2ccc(-c3ccccc3)cc2)NC1=O [Compound 1741] ({CH2CO}-[3Pal]YDWL[Bip]V[NMeA][dA]NLVSCA-NH2; thioether N-14)  0.02 µM
10. CC(C)C[C@@H]1NC(=O)[C@H](Cc2c[nH]c3ccccc23)NC(=O)[C@H](CC(=O)O)NC(=O)[C@H](Cc2ccc(O)cc2)NC(=O)[C@H](Cc2ccccc2)NC(=O)CSC[C@@H](C(=O)NCC(N)=O)NC(=O)[C@H](CO)NC(=O)[C@H](C(C)C)NC(=O)[C@H](CC(C)C)NC(=O)[C@H](CCN)NC(=O)[C@@H](C)NC(=O)[C@H](C)N(C)C(=O)[C@H](C(C)C)NC(=O)[C@H](Cc2ccc(-c3ccccc3)cc2)NC1=O [Compound 1479] ({CH2CO}-FYDWL[Bip]V[NMeA][dA][Dab]LVSCG-NH2; thioether N-14)  0.02 µM
11. Cc1cccc(C[C@@H]2NC(=O)[C@H](CC(=O)O)NC(=O)[C@H](Cc3ccc(OCC(=O)O)cc3)NC(=O)[C@H](Cc3ccc(OCC(=O)O)cc3)NC(=O)CSC[C@@H](C(=O)N[C@@H](CCN)C(N)=O)NC(=O)[C@@H](CCN)NC(=O)[C@H](C(C)C)NC(=O)[C@H](CC3CCCCC3)NC(=O)[C@H](CCN)NC(=O)[C@@H](CC(C)C)NC(=O)[C@H](C)N(C)C(=O)[C@H](Cc3ccc(O)cc3)NC(=O)[C@H](Cc3ccc(-c4ccccc4)cc3)NC(=O)[C@H](Cc3ccc(O)cc3)NC2=O)c1 [Compound 1872] ({CH2CO}-Y(Carboxymethyl)Y(Carboxymethyl)D[Phe(3-Me)]Y[Bip]Y[NMeA][dL][Dab][Cha]V[dDab]C[Dab]-NH2; thioether N-14)  0.02 µM
